The assay concerns the target T1, HCV genotype 1b (BK) NS3 modified with a R155K mutation (Hepatitis C virus genotype 1b, UniProt P26663, R1181K).
T1 construct: HCV genotype 1b (BK) NS3 modified with a R155K mutation
The assay can be described thus: HCV NS3 protease time-resolved fluorescence (TRF) assay, NS3 protease 1b R155K Ki activity. As to conditions: HCV genotype 1b (BK) NS3 with R155K mutation; TRF peptide substrate 100 nM; Ki derived from IC50. Type of assay: biochemical. How it is done: The HCV NS3 protease inhibitory activity of the present compounds may be tested using assays known in the art. One such assay is HCV NS3 protease time-resolved fluorescence (TRF) assay as described below and in International Patent Application Publication WO 2006/102087. Other examples of such assays are described in e.g., International Patent Application Publication WO 2005/046712.
A NS3 protease assay can be performed, for example, in a final volume of 100 μl assay buffer containing 50 mM HEPES, pH 7.5, 150 mM NaCl, 15% glycerol, 0.15% TRITON X-100, 10 mM DTT, and 0.1% PEG 8000. NS3 and NS4A protease is pre-incubated with various concentrations of inhibitors in DMSO for 30 minutes. The reaction is initiated by adding the TRF peptide substrate (final concentration 100 nM). NS3 mediated hydrolysis of the substrate is quenched after 1 hour at room temperature with 100 μl of 500 mM MES, pH 5.5. Product fluorescence is detected using either a VICTOR V2 or FUSION fluorophotometer (Perkin Elmer Life and Analytical Sciences) with excitation at 340 nm and emission at 615 nm with a 400 μs delay. Testing concentrations of different enzyme forms are selected to result in a signal to background ratio (S/B) of 10-30. IC50 values are derived using a standard four-parameter fit to the data. Ki values are derived from IC50 values using the following formula, IC50=Ki(1+[S]/KM), Eqn (1), where [S] is the concentration of substrate peptide in the reaction and KM is the Michaelis constant. See P. Gallinari et al., 38 BIOCHEM. 5620-32 (1999); P. Gallinari et al., 72 J. VIROL. 6758-69 (1998); M. Taliani et al., 240 ANAL. BIOCHEM. 60-67 (1996).
The HCV NS3 protease inhibitory activity was measured using the protease time-resolved fluorescence (TRF) assay as described below and in International Patent Application Publication WO 2006/102087. The assay was performed with HCV genotype 1b (BK) NS3 modified with a R155K mutation.
The assay was performed in a final volume of 100 μl in assay buffer containing 50 mM HEPES, pH 7.5, 150 mM NaCl, 15% glycerol, 0.15% TRITON X-100, 10 mM DTT, and 0.1% PEG 8000. NS3 and NS4A protease is pre-incubated with various concentrations of inhibitors in DMSO for 30 minutes. The reaction is initiated by adding the TRF peptide substrate (final concentration 100 nM). NS3 mediated hydrolysis of the substrate is quenched after 1 hour at room temperature with 100 μl of 500 mM MES, pH 5.5. Product fluorescence is detected using either a VICTOR V2 or FUSION fluorophotometer (Perkin Elmer Life and Analytical Sciences) with excitation at 340 nm and emission at 615 nm with a 400 μs delay. Testing concentrations of the enzyme containing the R155K mutation were selected to result in a signal to background ratio (S/B) of 10-30. IC50 values are derived using a standard four-parameter fit to the data. Ki values are derived from IC50 values using the following formula, IC50=Ki(1+[S]/KM), Eqn (1), where [S] is the concentration of substrate peptide in the reaction and KM is the Michaelis constant. See P. Gallinari et al., 38 BIOCHEM. 5620-32 (1999); P. Gallinari et al., 72 J. VIROL. 6758-69 (1998); M. Taliani et al., 240 ANAL. BIOCHEM. 60-67 (1996).

Usually Ki stands for a measure of affinity in units of concentration, obtained from inhibition or displacement. Read a high Ki as lower affinity. In the case of `CC[C@@H]1C[C@]1(NC(=O)[C@@H]1C[C@@H]2CN1C(=O)[C@H](C1CCCC1)NC(=O)O[C@@H]1CCC[C@H]1CC/C=C/Cc1c(nc3ccccn3c1=O)O2)C(=O)NS(=O)(=O)C1CC1` [(3aR,7S,10S,12R,22E,25aS)-7-cyclopentyl-N-((1R,2R)-1-{[(cyclopropylsulfonyl)amino]carbonyl}-2-ethylcyclopropyl)-5,8,20-trioxo-1,2,3,3a,5,6,7,8,11,12,21,24,25,25a-tetradecahydro-10H,20H-9,12-methanocyclopenta[r]pyrido[1′,2′:1,2]pyrimido[4,5-k][1,10,3,6]dioxadiazacyclononadecine-10-carboxamide], the inhibition constant (Ki) is 0.1 to 0.5 nM.
Next, `C=C[C@@H]1C[C@]1(NC(=O)[C@@H]1C[C@@H]2CN1C(=O)[C@H](C1CCCC1)NC(=O)O[C@@H]1CCC[C@H]1C/C=C/Cn1c(cc3ccccc3c1=O)O2)C(=O)NS(=O)(=O)C1CC1`: 0.1 to 0.5 nM.
`CC[C@@H]1C[C@]1(NC(=O)[C@@H]1C[C@@H]2CN1C(=O)[C@H](C1CCCC1)NC(=O)O[C@@H]1CCC[C@H]1CC/C=C/Cn1c(nc3cc(C#N)ccc3c1=O)O2)C(=O)NS(=O)(=O)C1CC1` [(3aR,7S,10S,12R,22E,25aS)-16-cyano-7-cyclopentyl-N-((1R,2R)-1-{[(cyclopropylsulfonyl)amino]carbonyl}-2-ethylcyclopropyl)-5,8,19-trioxo-1,2,3,3a,5,6,7,8,11,12,21,24,25,25a-tetradecahydro-10H,19H-9,12-methanocyclopenta[18,19][1,10,3,6,12]dioxatriazacyclononadecino[11,12-b]quinazoline-10-carboxamide] had an inhibition constant (Ki) of 0.1 to 0.5 nM.
With `CC[C@@H]1C[C@]1(NC(=O)[C@@H]1C[C@@H]2CN1C(=O)[C@H](C1CCCC1)NC(=O)O[C@@H]1C[C@H]1CCCCCn1c(cc3ccccc3c1=O)O2)C(=O)NS(=O)(=O)C1CC1` [(1aR,5S,8S,10R,23aR)-5-cyclopentyl-N-((1R,2R)-1-{[(cyclopropylsulfonyl)amino]carbonyl}-2-ethylcyclopropyl)-3,6,17-trioxo-1,1a,3,4,5,6,9,10,19,20,21,22,23,23a-tetradecahydro-8H,17H-7,10-methanocyclopropa[18,19][1,10,3,6,12]dioxatriazacyclononadecino[12,11-b]isoquinoline-8-carboxamide] the figure was 0.1 to 0.5 nM.
With `C=C[C@@H]1C[C@]1(NC(=O)[C@@H]1C[C@@H]2CN1C(=O)[C@H](C(C)(C)C)NC(=O)O[C@@H]1CCC[C@H]1C/C=C/CCn1c(cc3cc(OC)ccc3c1=O)O2)C(=O)NS(=O)(=O)C1CC1` [(3aR,7S,10S,12R,23E,25aS)-7-tert-butyl-N-((1R,2S)-1-{[(cyclopropylsulfonyl)amino]carbonyl}-2-vinylcyclopropyl)-16-methoxy-5,8,19-trioxo-1,2,3,3a,5,6,7,8,11,12,21,22,25,25a-tetradecahydro-10H,19H-9,12-methanocyclopenta[18,19][1,10,3,6,12]dioxatriazacyclononadecino[12,11-b]isoquinoline-10-carboxamide], the Ki is 0.1 to 0.5 nM.
As for `CC[C@@H]1C[C@]1(NC(=O)[C@@H]1C[C@@H]2CN1C(=O)[C@H](C1CCCC1)NC(=O)O[C@@H]1CCC[C@H]1CCCCCn1c(nc3ccccc3c1=O)O2)C(=O)NS(=O)(=O)C1CC1` [(3aR,7S,10S,12R,25aR)-7-cyclopentyl-N-((1R,2R)-1-{[(cyclopropylsulfonyl)amino]carbonyl}-2-ethylcyclopropyl)-5,8,19-trioxo-1,2,3,3a,5,6,7,8,11,12,21,22,23,24,25,25a-hexadecahydro-10H,19H-9,12-methanocyclopenta[18,19][1,10,3,6,12]dioxatriazacyclononadecino[11,12-b]quinazoline-10-carboxamide], the inhibition constant (Ki) is 0.1 to 0.5 nM.
`C=C[C@@H]1C[C@]1(NC(=O)[C@@H]1C[C@@H]2CN1C(=O)[C@H](C(C)(C)C)NC(=O)O[C@@H]1CCC[C@H]1CCCCCn1c(cc3cc(OC)ccc3c1=O)O2)C(=O)NS(=O)(=O)C1CC1` [(3aR,7S,10S,12R,25aR)-7-tert-butyl-N-((1R,2S)-1-{[(cyclopropylsulfonyl)amino]carbonyl}-2-vinylcyclopropyl)-16-methoxy-5,8,19-trioxo-1,2,3,3a,5,6,7,8,11,12,21,22,23,24,25,25a-hexadecahydro-10H,19H-9,12-methanocyclopenta[18,19][1,10,3,6,12]dioxatriazacyclononadecino[12,11-b]isoquinoline-10-carboxamide] showed an inhibitory constant (Ki) of less than 0.1 nM.
On to `C=C[C@@H]1C[C@]1(NC(=O)[C@@H]1C[C@@H]2CN1C(=O)[C@H](C1CCCC1)NC(=O)O[C@@H]1CCC[C@H]1CCCCCn1c(nc3ccccc3c1=O)O2)C(=O)NS(=O)(=O)C1CC1` [(3aR,7S,10S,12R,25aR)-7-cyclopentyl-N-((1R,2S)-1-{[(cyclopropylsulfonyl)amino]carbonyl}-2-vinylcyclopropyl)-5,8,19-trioxo-1,2,3,3a,5,6,7,8,11,12,21,22,23,24,25,25a-hexadecahydro-10H,19H-9,12-methanocyclopenta[18,19][1,10,3,6,12]dioxatriazacyclononadecino[11,12-b]quinazoline-10-carboxamide], for which the inhibitory constant (Ki) was less than 0.1 nM.
With `C=C[C@@H]1C[C@]1(NC(=O)[C@@H]1C[C@@H]2CN1C(=O)[C@H](C(C)(C)C)NC(=O)O[C@@H]1CCC[C@H]1CCCCCn1c(cc3cc(Cl)ccc3c1=O)O2)C(=O)NS(=O)(=O)C1CC1` [(3aR,7S,10S,12R,25aR)-7-tert-butyl-16-chloro-N-((1R,2S)-1-{[(cyclopropylsulfonyl)amino]carbonyl}-2-vinylcyclopropyl)-5,8,19-trioxo-1,2,3,3a,5,6,7,8,11,12,21,22,23,24,25,25a-hexadecahydro-10H,19H-9,12-methanocyclopenta[18,19][1,10,3,6,12]dioxatriazacyclononadecino[12,11-b]isoquinoline-10-carboxamide] the figure was less than 0.1 nM; with `C=C[C@@H]1C[C@]1(NC(=O)[C@@H]1C[C@@H]2CN1C(=O)[C@H](C1CCCC1)NC(=O)O[C@@H]1CCC[C@H]1CC/C=C/Cn1c(nc3cc(Br)ccc3c1=O)O2)C(=O)NS(=O)(=O)C1CC1` [Example 43, (3aR,7S,10S,12R,22E,25aS)-16-bromo-7-cyclopentyl-N-((1R,2S)-1-{[(cyclopropylsulfonyl)amino]carbonyl}-2-vinylcyclopropyl)-5,8,19-trioxo-1,2,3,3a,5,6,7,8,11,12,21,24,25,25a-tetradecahydro-10H,19H-9,12-methanocyclopenta[18,19][1,10,3,6,12]dioxatriazatriazacyclononadecino[11,12-b]quinazoline-10-carboxamide], less than 0.1 nM; with `C=C[C@@H]1C[C@]1(NC(=O)[C@@H]1C[C@@H]2CN1C(=O)[C@H](C1CCCC1)NC(=O)O[C@@H]1C[C@H]1CCCCCn1c(cc3ccccc3c1=O)O2)C(=O)NS(=O)(=O)C1CC1` [(1aR,5S,8S,10R,23aR)-5-cyclopentyl-N-((1R,2S)-1-{[(cyclopropylsulfonyl)amino]carbonyl}-2-vinylcyclopropyl)-3,6,17-trioxo-1,1a,3,4,5,6,9,10,19,20,21,22,23,23a-tetradecahydro-8H,17H-7,10-methanocyclopropa[18,19][1,10,3,6,12]dioxatriazacyclononadecino[12,11-b]isoquinoline-8-carboxamide], less than 0.1 nM.

The values are drawn from US8461107B2 (Merck Sharp & Dohme Corp., priority 2008, dated 2013).
